Measurements as given in patent publication US20180237441A1, “Chemical Compounds” (GlaxoSmithKline Intellectual Property (No.2) Limited, priority 2015, published 2018).

System: prion infected mice
Test: not given
Conditions: cited from earlier work

| SMILES | neuroprotective effect and clinical signs of disease |
| --- | --- |
| Cn1cc(-c2ccc3c(c2)CCN3C(=O)Cc2cccc(C(F)(F)F)c2)c2c(N)ncnc21 [GSK2606414, 7-methyl-5-(1-{[3-(trifluoromethyl)phenyl]acetyl}-2,3-dihydro-1H-indol-5-yl)-7H-pyrrolo[2,3-d]pyrimidin-4-amine] | provide a neuroprotective effect and prevent clinical signs of disease |

Target: T1, PERK (Homo sapiens, UniProt Q9NZJ5)
T1 sequence (Q9NZJ5 30-1116): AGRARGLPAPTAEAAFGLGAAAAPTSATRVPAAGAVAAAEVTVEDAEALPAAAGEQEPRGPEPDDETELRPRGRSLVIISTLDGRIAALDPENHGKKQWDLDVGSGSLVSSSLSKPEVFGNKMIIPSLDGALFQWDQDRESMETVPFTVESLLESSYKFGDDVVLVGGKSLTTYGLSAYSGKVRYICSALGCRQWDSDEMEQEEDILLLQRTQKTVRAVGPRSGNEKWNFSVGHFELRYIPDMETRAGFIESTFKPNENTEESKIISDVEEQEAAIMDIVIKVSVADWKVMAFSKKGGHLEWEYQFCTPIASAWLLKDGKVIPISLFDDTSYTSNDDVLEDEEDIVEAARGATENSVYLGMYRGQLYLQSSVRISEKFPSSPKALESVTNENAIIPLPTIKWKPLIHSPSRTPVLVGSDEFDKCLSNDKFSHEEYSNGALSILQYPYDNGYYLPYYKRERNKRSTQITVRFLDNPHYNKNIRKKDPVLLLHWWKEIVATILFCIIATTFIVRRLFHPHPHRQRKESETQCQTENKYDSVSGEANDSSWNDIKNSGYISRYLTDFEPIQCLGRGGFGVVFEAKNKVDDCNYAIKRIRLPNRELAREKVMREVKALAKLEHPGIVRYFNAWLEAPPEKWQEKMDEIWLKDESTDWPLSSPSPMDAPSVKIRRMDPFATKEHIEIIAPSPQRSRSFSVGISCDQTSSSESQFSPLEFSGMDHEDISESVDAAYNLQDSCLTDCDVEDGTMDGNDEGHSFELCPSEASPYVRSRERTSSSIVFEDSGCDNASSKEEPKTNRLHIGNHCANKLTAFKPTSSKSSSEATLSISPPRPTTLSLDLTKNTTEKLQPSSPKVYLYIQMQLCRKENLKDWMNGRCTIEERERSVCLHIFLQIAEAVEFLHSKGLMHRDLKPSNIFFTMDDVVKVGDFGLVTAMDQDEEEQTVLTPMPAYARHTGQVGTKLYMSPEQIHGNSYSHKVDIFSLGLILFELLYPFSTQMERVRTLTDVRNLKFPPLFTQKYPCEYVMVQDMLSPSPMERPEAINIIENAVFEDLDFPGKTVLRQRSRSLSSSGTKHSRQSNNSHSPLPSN
Test: PERK enzyme assay (HTRF)
Assay type: biochemical
Conditions: PERK Enzyme (500 μM ATP) IC50; at least one experimental run; read-out: PERK Activity
Procedure, shortened: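 HTRF read-out after 2 h of EDTA-quenched reactions, detecting phospho-eIF2α with Eu/APC reagents, gave IC50 values. Reaction: 0.75 nM GST-PERK, 30–60 min compound pre-incubation (max 1% DMSO), then 60 min with 40 nM biotin-eIF2α and 500 μM ATP, HEPES pH 7.5 buffer.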

| SMILES | IC50 |
| --- | --- |
| Cc1nc(N)c2c(-c3ccc(N4CC(c5ccc(F)cc5F)N(C)C4=O)cc3F)cn(C3CC3)c2n1 (single isomer, unassigned) [Example 9, 1-(4-(4-amino-7-cyclopropyl-2-methyl-7H-pyrrolo[2,3-d]pyrimidin-5-yl)-3-fluorophenyl)-4-(2,4-difluorophenyl)-3-methylimidazolidin-2-one] | > 1 µM |
| CN1C(=O)N(c2ccc(-c3cn(C4CC4)c4ncnc(N)c34)c(F)c2)CC1c1ccc(F)cc1 (single isomer, unassigned) [Example 163, 1-(4-(4-amino-7-cyclopropyl-7H-pyrrolo[2,3-d]pyrimidin-5-yl)-3-fluorophenyl)-4-(4-fluorophenyl)-3-methylimidazolidin-2-one] | < 0.1 µM |
| Cn1cc(-c2ccc(N3CC(c4cccc(Cl)c4F)CC3=O)cc2F)c2c(N)ncnc21 (stereo not drawn) [Example 35, 1-(4-(4-amino-7-methyl-7H-pyrrolo[2,3-d]pyrimidin-5-yl)-3-fluorophenyl)-4-(3-chloro-2-fluorophenyl)pyrrolidin-2-one] | 0.1 to 1 µM |
| CN1C(=O)N(c2ccc(-c3cn(C4CC4)c4ncnc(N)c34)c(F)c2)CC1c1ccc(F)c(F)c1 (stereo not drawn) [Example 114, 1-(4-(4-amino-7-cyclopropyl-7H-pyrrolo[2,3-d]pyrimidin-5-yl)-3-fluorophenyl)-4-(3,4-difluorophenyl)-3-methylimidazolidin-2-one] | < 0.1 µM |
| CN1C(=O)N(c2ccc(-c3cn(C4CC4)c4ncnc(N)c34)c(F)c2)CC1c1ccc(F)c(Cl)c1 (single isomer, unassigned) [Example 134, 1-(4-(4-amino-7-cyclopropyl-7H-pyrrolo[2,3-d]pyrimidin-5-yl)-3-fluorophenyl)-4-(3-chloro-4-fluorophenyl)-3-methylimidazolidin-2-one] | < 0.1 µM |
